Values of other authors as cited in publication PMC10046460, “Phase I Trial of [^99mTc]Tc-maSSS-PEG2-RM26, a Bombesin Analogue Antagonistic to Gastrin-Releasing Peptide Receptors (GRPRs), for SPECT Imaging of GRPR Expression in Malignant Tumors” (Cancers, 2023).

Experiments:
[1] = tested on: prostate-specific membrane antigen (PSMA); conditions: PCa patients; cited from earlier work
Experimental: Prostate and breast cancers are the most common sex-related malignancies, with an increasing incidence in many countries over the past 30 years. Accurate diagnosis and staging of the diseases are important for the prognosis and determination of treatment tactics for these pathologies. […] Many derivatives of this pseudo-peptide were tested clin ...

[2] = in vivo; cited from earlier work
Excerpt: The biodistribution of [^99mTc]Tc-maSSS-PEG2-RM26 was characterized by the rapid whole body elimination and blood clearance of unbound tracers (Figure 4). This decreases the background caused by the blood-borne activity and creates preconditions for high-contrast imaging. The clinical trial confirmed the major feature of the tracer found in the preclinical studies, a substantial degree of hepatobiliary excretion. The hepatobiliary excretion of [^99mTc]Tc-maSSS-PEG2-RM26 was the highest among other GRPR antagonists tested in clinics and was similar to the excretion of [^99mTc]Tc-RP527, a ...

Row | Compound | sensitivity in the detection of LN metastases [1] [%] | route of excretion [2]
1 | O=C(O)CC[C@H](NC(=O)N[C@@H](CCCCNC(=O)c1ccc([18F])nc1)C(=O)O)C(=O)O [^18F-DCFPyL] | 40 | –
2 | O=C([O-])CN(CCN(CC(=O)[O-])Cc1cc(CCC(=O)NCCCCCC(=O)NCCCC[C@H](NC(=O)N[C@@H](CCC(=O)O)C(=O)O)C(=O)O)ccc1[O-])Cc1cc(CCC(=O)O)ccc1[O-].[68Ga+3].[OH3+] [^68Ga-PSMA] | 61 | –
3 | D-Phe-Gln-Trp-Ala-Val-Sar-His-Sta-Leu-NHEt [[^99mTc]Tc-DB15, ^99mTc-labeled BN antagonist for SPECT, tested in two patients] | – | Predominantly renal excretion
